Results reported in patent publication US7731994B2, “Pharmaceutical composition for protecting neurons comprising extract of lithospermum erythrothizon SIEB. ET. Zucc or acetylshikonin isolated therefrom as an effective ingredient” (Industry Academic Cooperation Foundation of Kyunghee …, priority 2007, dated 2010).
“Also recorded” adds a separate entry of the source.

Tests used:
[1] = test system: BV-2 cells activated by lipopolysaccharide; assay: NO generation (Griess reagent) in BV-2 cells activated by lipopolysaccharide; type: cell-based; conditions: 100 ng/ml lipopolysaccharide
Method: (§1) To investigate the effect of acetylshikonin on the activation of microglia cells which are macrophages in brain, NO generation was measured in BV-2 cells and primary microglia cells which are neuroglia cells, activated by lipopolysaccharide according to the previously reported methods with slight modifications (Min Kim J, et al., Neuroreport, 14(15), pp1941-1944, 2003).
(§2) BV-2 cells (Lab. of Dr. Eui-Ju Choi, Korea University) were maintained in DMEM (Dulbeccols Modified Eagle Medium, Gibco-BRL, England) supplemented with 10% FBS (Fetal Bovine Serum, Gibco-BRL, England) and 1% penicillin-streptomycin (Gibco-BRL, England). To obtain the primary microglia cells, brain cells were separated from the brain extracted from Sprague-Dawley rat (Taconic, Japan) at less than 1 week from the birth and the cells were cultured for approximately 2 weeks in DMEM having the same composition with the one used for BV-2 cell culture in a 75T flask and then the primary microglia cells were recovered. BV-2 cells and the primary microglia cells were distributed into a 96 well plate at the concentration of […] and then cultured in a 37° C., 5% CO2 incubator for overnight. […] OD570 was measured by Elyzerleader (Moleulat Device, USA) and the concentration was calculated by considering the level of sodium nitrite as standard.

[2] = test system: primary microglia cells activated by lipopolysaccharide; assay: NO generation (Griess reagent) in primary microglia cells activated by lipopolysaccharide; type: cell-based, Sprague-Dawley rat; conditions: 100 ng/ml lipopolysaccharide
Method: as §1, §2

[3] = test system: rats with local brain ischemia induced by middle cerebral arterial occlusion; assay: Defensive effect in rats with local brain ischemia induced by middle cerebral arterial occlusion (TTC staining, infarct volume); type: in vivo, Sprague-dawley male rats; conditions: right after and 120 minutes after brain ischemia was induced, MCAo 120 min, 22 hours reperfusion
Method: Sprague-dawley male rats at 8 weeks having the weight of 280 g-300 g were purchased from Samtako, Inc., Korea. The rats were supplied with feed and water enough and adapted to the experimental environment for one week. Middle cerebral arterial occlusion was performed by intraluminal suture method based on the method of Zea longa, et al (Zea longa, et al., Stroke, 20, pp 84-91, 1989). Once middle cerebral artery of a rat is closed, blood flow is interrupted around middle cerebral arterial region so that oxygen and other energy source are exhausted, leading to cell death. In particular, tissue necrosis is observed in the center of the middle cerebral arterial region, striatum and temporal lobe, which is so called 'ischemic core'. Although not middle cerebral arterial region, the neighboring cells begin to be auto-destroyed, which is called '[…] penumbra'. 3 hours after blocking middle cerebral artery, necrosis starts and from 6 hours after blocking, cerebral ischemia is developed. The progress of cerebral ischemia continues for 24 hours after middle cerebral artery was closed for 120 minutes, and on the 3rd day, it reaches the highest degree. To measure the level of cerebral ischemia, it is necessary to measure correlated infarct volume (mm^3). […] Blood sugar and blood gas were measured from the blood sample. […]

[4] = test system: iNOS mRNA; assay: RT-PCR of iNOS mRNA expression in primary microglia cells activated by lipopolysaccharide; type: cell-based, Sprague-Dawley rat; conditions: 100 ng/ml lipopolysaccharide co-treated with 0.1, 1 uM, 24 hours
Method: To investigate the inhibition of iNOS mRNA expression by acetylshikonin, […] was performed.
The primary microglia cells cultured in DMEM supplemented with 10% FBS and 1% penicillin-streptomycin were distributed in a 6 well plate at the concentration of 4×10^6 cells/well, followed by culture for 24 hours. 100 ng/ml of lipopolysaccharide and 0.1, 1 uM of acetylshikonin were co-treated thereto, followed by activation of the cells for 24 hours. The control group was not treated with lipopolysaccaride. After 24 hours of activation, the culture medium was discarded and the cells were washed with cold PBS ([…]), to which trypsin was treated. 1 ml of PBS containing the cells was obtained, followed by centrifugation at 12,000 rpm for 2 minutes to separate the cells. The cells were lysed in RNA separation solution (easyblue) to extract RNA from the cells, followed by centrifugation at 12,000 rpm for 15 minutes. After treating chloroform, centrifugation was performed again at 13,000 rpm for 25 minutes and the supernatant was obtained and washed with isopropanol to extract RNA. cDNA was synthesized using 5 ug of the RNA and 5 μmol of primer at 45° C., followed by PCR. […]

[5] = test system: IL-1beta mRNA; assay: RT-PCR of IL-1beta mRNA expression in primary microglia cells activated by lipopolysaccharide; type: cell-based, Sprague-Dawley rat; conditions: 100 ng/ml lipopolysaccharide co-treated with 0.1, 1 uM, 24 hours
[6] = test system: TNF-alpha mRNA; assay: RT-PCR of TNF-alpha mRNA expression in primary microglia cells activated by lipopolysaccharide; type: cell-based, Sprague-Dawley rat; conditions: 100 ng/ml lipopolysaccharide co-treated with 0.1, 1 uM, 24 hours
[7] = test system: iNOS; assay: Western blot of iNOS expression in primary microglia cells activated by lipopolysaccharide; type: cell-based, Sprague-Dawley rat; conditions: 100 ng/ml lipopolysaccharide co-treated with 0.1, 1 uM, 24 hours
Method: (§3) Western blot analysis was performed to investigate the inhibition of iNOS expression by acetylshikonin.
(§4) The primary microglia cells cultured in DMEM supplemented with 10% FBS and 1% penicillin-streptomycin were distributed in a 6 well plate at the concentration of 4×10^6 cells/well, followed by culture for 24 hours. 100 ng/ml of lipopolysaccharide and 0.1, 1 uM of acetylshikonin were co-treated thereto, followed by activation of the cells for 24 hours. The control group was not treated with lipopolysaccaride. After 24 hours of activation, the culture medium was discarded and the cells were washed with cold PBS, to which trypsin was treated. 1 ml of PBS containing the cells was obtained, followed by centrifugation at 12,000 rpm for 2 minutes to separate the cells. The cells were loaded in 50 μl of triple lysis buffer to decompose all the cell membranes and then centrifugation was performed at 12,000 rpm for 30 minutes to obtain supernatant, a protein layer. The obtained supernatant was diluted and protein was quantified by Bradford method. After quantification, an equal amount of protein proceeded onto 8% polyacrylamide gel electrophoresis. The separated proteins from the electrophoresis were transferred onto Hybond ECL nitrocellulose membrane, leading to the reaction with primary and secondary antibodies of iNOS and IL-1beta. ECL examination was performed.

[8] = test system: IL-1beta; assay: Western blot of IL-1beta expression in primary microglia cells activated by lipopolysaccharide; type: cell-based, Sprague-Dawley rat; conditions: 100 ng/ml lipopolysaccharide co-treated with 0.1, 1 uM, 24 hours
Method: as §3, §4

[9] = 24 hours, 0.5 mM positive control
[10] = 24 hours, 0.1, 0.5 and 1 uM tested, inhibition stated at 1 uM

| SMILES | NO generation [1, 9] | NO generation [2, 9] | protective effect on brain tissue damage, compared with the control ([3]; 1 mg/kg orally) | protective effect on brain tissue damage, compared with the control ([3]; 3 mg/kg orally) | NO generation [1, 10] | NO generation [2, 10] | expression of mRNA of iNOS [4] | expression of mRNA of IL-1beta [5] | expression of mRNA of TNF-alpha [6] | expression of iNOS (protein) [7] | expression of IL-1beta (protein) [8] |
| --- | --- | --- | --- | --- | --- | --- | --- | --- | --- | --- | --- |
| CNC(=N)NCCC[C@H](N)C(=O)O [positive control, N super(G)-monomethyl-L-arginine, reference compound] | inhibition of NO generation | inhibition of NO generation |  |  |  |  |  |  |  |  |  |
| CC(=O)O[C@H](CC=C(C)C)C1=CC(=O)c2c(O)ccc(O)c2C1=O [acetylshikonin] |  |  | ~46.88% | 68.75% | inhibited the generation of nitric oxide dose dependently; also recorded: inhibition of NO generation | inhibited the generation of nitric oxide dose dependently; also recorded: inhibition of NO generation | inhibited | inhibited | inhibited | inhibited | inhibited |
